The source of these data is patent publication US12428415B2, “Matriptase 2 inhibitors and uses thereof” (Disc Medicine, Inc., priority 2018, dated 2025).

Molecules are shown by their SMILES.

As usually defined, the inhibition is the change of the read-out against control, counted positive when it falls.

One test has as its target T1, Human Recombinant Matriptase 2 (Homo sapiens, UniProt Q8IU80).
T1 construct: purchased Enzo Life Sciences (an in-house preparation was also used) ALX-201-752-1
T1 sequence (Q8IU80 1-811): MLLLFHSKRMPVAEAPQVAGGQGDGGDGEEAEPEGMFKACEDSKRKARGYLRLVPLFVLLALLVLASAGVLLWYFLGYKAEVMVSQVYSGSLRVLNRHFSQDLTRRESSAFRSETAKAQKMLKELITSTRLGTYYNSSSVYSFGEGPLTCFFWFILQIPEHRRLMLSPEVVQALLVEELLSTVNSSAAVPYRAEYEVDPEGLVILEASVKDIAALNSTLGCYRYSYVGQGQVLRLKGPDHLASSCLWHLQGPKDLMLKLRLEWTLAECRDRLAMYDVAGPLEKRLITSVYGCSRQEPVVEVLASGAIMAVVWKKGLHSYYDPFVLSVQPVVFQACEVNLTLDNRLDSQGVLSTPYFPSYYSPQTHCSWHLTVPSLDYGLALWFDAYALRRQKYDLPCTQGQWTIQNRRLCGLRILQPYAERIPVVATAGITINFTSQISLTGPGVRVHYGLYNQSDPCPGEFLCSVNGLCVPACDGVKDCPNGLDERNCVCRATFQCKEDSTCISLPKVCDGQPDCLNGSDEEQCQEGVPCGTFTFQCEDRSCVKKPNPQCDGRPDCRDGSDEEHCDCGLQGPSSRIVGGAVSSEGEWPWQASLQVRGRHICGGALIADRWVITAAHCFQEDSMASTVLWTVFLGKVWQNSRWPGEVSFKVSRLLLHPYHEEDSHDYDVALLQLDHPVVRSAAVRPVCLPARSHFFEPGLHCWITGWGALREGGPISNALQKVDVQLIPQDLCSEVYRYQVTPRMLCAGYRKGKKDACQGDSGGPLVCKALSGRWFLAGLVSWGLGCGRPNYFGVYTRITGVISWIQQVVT
Nature of the test: Matriptase 2 fluorescence based inhibition assay, Method B (50 mM TRIS pH 7.5, 150 mM NaCl, 0.01% gelatin). The note with it: 1 uM compound; Assay Used = B (Method B); read-out: Mar-2 % inhibition at 1 uM. In kind it is biochemical. The method, boiled down: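 Fluorogenic substrate Boc-Gln-Ala-Arg-7-amido-4-methylcoumarin (100 μM) cleavage read at Ex 360/Em 480 nm 60 min after addition, following 30 min enzyme–compound preincubation at 25° C. Enzyme was 7 nM commercial or 15 nM in-house; DMSO 1%. IC50s fitted by non-linear sigmoidal regression.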
On to `N=C(N)c1ccc2cc(C(=O)N[C@H]3CC[C@H](N)CC3)n(C[C@H]3CCCc4ccccc43)c2c1` (racemic) [Compound I-612], for which the inhibition at 1 µM lay in the range of 25 to 50%.
As for `N=C(N)c1ccc2cc(C(=O)O)n(Cc3cc(Oc4ccc(-c5ccccc5)cc4)cc4ccccc34)c2c1` [Compound I-711], the inhibition at 1 µM fell in the range of 25 to 50%.
The same measure, in the same setting: under `N=C(N)c1ccc2cc(C(=O)Nc3ccncc3)n(Cc3cccc4ccccc34)c2c1` [Compound I-763] stands 50 to 75%; under `N=C(N)c1ccc2cc(C(=O)N[C@H]3CC[C@H](NC(=O)NC(N)=O)CC3)n(Cc3cccc4ccccc34)c2c1` [Compound I-734], 50 to 75%.
For `N=C(N)c1ccc2cc(C(=O)OCCN)n(Cc3cccc4ccccc34)c2c1` [Compound I-745], the inhibition at 1 µM was in the range of 0 to 25%.
For `N=C(N)c1ccc2cc(C(=O)N[C@H]3CC[C@H](N)CC3)n(Cc3cc(Sc4ccccc4)cc4ccccc34)c2c1` [Compound I-725], the inhibition at 1 µM lay within 75 to 100%.
`N=C(N)c1ccc2cc(C(=O)O)n(Cc3cc(O)cc4ccccc34)c2c1` [Compound I-695, 6-carbamimidoyl-1-((3-hydroxynaphthalen-1-yl)methyl)-1H-indole-2-carboxylic Acid]: the inhibition at 1 µM was 75 to 100%.
For the molecule `N=C(N)c1ccc2cc(C(=O)N[C@H]3CC[C@H](N)CC3)n(Cc3ccc(Oc4ccccc4)c4ccccc34)c2c1` [Compound I-701], the inhibition at 1 µM lay within 75 to 100%.
Regarding `N=C(N)c1ccc2cc(C(=O)O)n(Cc3cc(OC(F)F)cc4ccccc34)c2c1` [Compound I-648], the inhibition at 1 µM was in the range of 50 to 75%.
As for `N=C(N)c1ccc2cc(C(=O)N[C@H]3CC[C@H](N)CC3)n(Cc3cccc4cc(-c5ccccc5)ccc34)c2c1` [Compound I-768], the inhibition at 1 µM lay within 75 to 100%.
Same read-out and setting: the value for `N=C(N)c1ccc2cc(C(=O)N[C@H]3CC[C@H](N)CC3)n(Cc3csc4ccccc34)c2c1` [Compound I-756] was 75 to 100%; that for `Cc1cnc(-c2cc3ccc(C(=N)N)cc3n2Cc2cccc3ccccc23)[nH]1` [Compound I-714] was 75 to 100%.
Turning to `N=C(N)c1ccc2cc(C(=O)N[C@H]3CC[C@H](N)CC3)n(Cc3cc(N4CCOCC4=O)cc4ccccc34)c2c1` [Compound I-702], the inhibition at 1 µM lay in the range of 25 to 50%.

Staying with this test, now noted: 1 uM compound; Assay Used = B; read-out: Mar-2 % inhibition at 1 uM.
Consider `CC(C)(C)OC(=O)NC(=N)c1ccc2cc(C(=O)Nc3ccc(NC(=O)c4ccccn4)cc3)n(Cc3cccc4ccccc34)c2c1` [Compound I-419], for which the inhibition at 1 µM is 0 to 25%.
On the same count and under the same terms, the value for `CN1CCC(CNC(=O)c2cc3ccc(C(=N)N)cc3n2Cc2cccc3ccccc23)CC1` [Compound I-460, 6-carbamimidoyl-N-((1-methylpiperidin-4-yl)methyl)-1-(naphthalen-1-ylmethyl)-1H-indole-2-carboxamide] was 75 to 100%; that for `N=C(N)c1ccc2cc(C(=O)Nc3ncccn3)n(Cc3cccc4ccccc34)c2c1` [Compound I-573, 6-carbamimidoyl-1-(naphthalen-1-ylmethyl)-N-(pyrimidin-2-yl)-1H-indole-2-carboxamide] was 50 to 75%.
As to `N=C(N)c1ccc2cc(C(=O)N3CC[C@@H](N)C3)n(Cc3cccc4ccccc34)c2c1` [Compound I-446], the inhibition at 1 µM lay within 50 to 75%.
Consider `N=C(N)c1ccc2c(C=O)c(C(=O)N[C@H]3CC[C@H](N)CC3)n(Cc3cccc4ccccc34)c2c1` [Compound I-515, N-((1r,4r)-4-aminocyclohexyl)-6-carbamimidoyl-3-formyl-1-(naphthalen-1-ylmethyl)-1H-indole-2-carboxamide], for which the inhibition at 1 µM was 25 to 50%.
On to `CC(C)(C)OC(=O)NC(=N)c1ccc2cc(C(=O)N[C@H]3CC[C@H](NC(=O)OC(C)(C)C)CC3)n(Cc3ccc(C(N)=O)cc3)c2c1` [Compound I-495], for which the inhibition at 1 µM lay within 0 to 25%.
Regarding `N=C(N)c1ccc2cc(C(=O)NCCCN)n(Cc3cccc4ccccc34)c2c1` [Compound I-466], the inhibition at 1 µM is 75 to 100%.
Turning to `NCc1ccc2cc(C(=O)O)n(Cc3cccc4ccccc34)c2c1` [Compound I-538, 6-(aminomethyl)-1-(naphthalen-1-ylmethyl)-1H-indole-2-carboxylic Acid], the inhibition at 1 µM lay in the range of 25 to 50%.
As to `NCCCCNC(=O)c1cc2ccc(CN)cc2n1Cc1cccc2ccccc12` [Compound I-541], the inhibition at 1 µM was in the range of 0 to 25%.
As to `N=C(N)c1ccc2cc(C(=O)O)n(-c3cccc4ccccc34)c2c1` [Compound I-489], the inhibition at 1 µM was 0 to 25%.
Consider `NCc1ccc2cc(C(=O)NCC3CCNCC3)n(Cc3cccc4ccccc34)c2c1` [Compound I-534], for which the inhibition at 1 µM is 25 to 50%.
On the same count and under the same terms, the value for `CCOC(=O)N1CCC(NC(=O)c2cc3ccc(C(=N)N)cc3n2Cc2cccc3ccccc23)CC1` [Compound I-434] was 75 to 100%.
On to `N=C(N)c1ccc2cc(C(=O)NCCN)n(Cc3cccc4ccccc34)c2c1` [Compound I-465], for which the inhibition at 1 µM lay in the range of 75 to 100%.
For `N=C(N)c1ccc2cc(C(=O)N[C@H]3CC[C@H](O)CC3)n(Cc3cccc4ccccc34)c2c1` [Compound I-440], the inhibition at 1 µM was in the range of 75 to 100%.
On the same count and under the same terms, under `CN1CCN(C(=O)c2cc3ccc(C(=N)NC(=O)OC(C)(C)C)cc3n2Cc2cccc3ccccc23)CC1` [Compound I-425] stands 0 to 25%; under `CC(C)(C)OC(=O)NC(=N)c1ccc2cc(C(=O)NC3CCC(NC(=O)OC(C)(C)C)CC3)n(Cc3cccc(Cl)c3Cl)c2c1` (stereo not shown) [Compound I-493], 0 to 25%; under `CN[C@H]1CC[C@H](NC(=O)c2cc3ccc(C(=N)N)cc3n2Cc2cccc3ccccc23)CC1` [Compound I-472], 75 to 100%.
Same read-out and setting: the value for `N=C(N)c1ccc2cc(C(=O)N[C@H]3CC[C@H](N)CC3)n(Cc3ccc(C(N)=O)c4ccccc34)c2c1` [Compound I-509] was 50 to 75%; that for `N=C(N)c1ccc2cc(C(=O)NC34CC5C[C@H](C3)C[C@](O)(C5)C4)n(Cc3cccc4ccccc34)c2c1` (stereo in doubt) [Compound I-449] was 25 to 50%.
Consider `N=C(N)c1ccc2cc(C(=O)OCCNC(N)=O)n(Cc3cc(Oc4ncccn4)cc4ccccc34)c2c1` [Compound I-568], for which the inhibition at 1 µM lay in the range of 75 to 100%.
For `CC(C)(C)OC(=O)NC(=N)c1ccc2cc(C(=O)NCc3ccc(CO)cc3)n(Cc3cccc4ccccc34)c2c1` [Compound I-421], the inhibition at 1 µM was in the range of 0 to 25%.
With `CN(C)C(=O)Sc1cc(Cn2c(C(=O)O)cc3ccc(C(=N)N)cc32)c2ccccc2c1` [Compound I-575], the inhibition at 1 µM fell in the range of 0 to 25%.
`CC(C)(C)OC(=O)NC(=N)c1ccc2cc(C(=O)N[C@H]3CC[C@H](NC(=O)OC(C)(C)C)CC3)n(Cc3ccnc4ccccc34)c2c1` [Compound I-494]: the inhibition at 1 µM was 0 to 25%.
On to `N=C(N)c1ccc2cc(C(=O)NC3CCCNC3)n(Cc3cccc4ccccc34)c2c1` (stereo not shown) [Compound I-445], for which the inhibition at 1 µM is 75 to 100%.

Staying with this test, now noted: at 1 uM; Assay Used = B; read-out: Mar-2 % inhibition at 1 uM.
As to `N=C(N)c1ccc2cc(C(=O)N[C@H]3CC[C@H](N)CC3)n(S(=O)(=O)c3cccc4ccccc34)c2c1` [Compound I-396, N-((1r,4r)-4-aminocyclohexyl)-6-carbamimidoyl-1-(naphthalen-1-ylsulfonyl)-1H-indole-2-carboxamide], the inhibition at 1 µM lay in the range of 25 to 50%.

The same test, now with this note: compound at 1 uM; Assay Used: B; read-out: Mar-2 % inhibition at 1 uM.
Turning to `C[C@@H](c1cccc2ccccc12)n1c(C(=O)N[C@H]2CC[C@H](N)CC2)cc2ccc(C(=N)N)cc21` [Compound I-805], the inhibition at 1 µM lay in the range of 0 to 25%.
Consider `N=C(N)c1ccc2cc(C(=O)N[C@H]3CC[C@H](N)CC3)n(Cc3cccc4ccsc34)c2c1` [Compound I-818], for which the inhibition at 1 µM fell in the range of 50 to 75%.
